Results as given in ChEMBL document CHEMBL1141151, “High-affinity epidermal growth factor receptor (EGFR) irreversible inhibitors with diminished chemical reactivities as positron emission tomography (PET)-imaging agent candidates of EGFR overexpressing tumors” (J Med Chem, 2005).

Key:
[1] = target: T1, Epidermal growth factor receptor (Homo sapiens, UniProt P00533); assay: (§1) Inhibition of EGF Receptor autophosphorylation in A431 cell lysate
[2] = target: T1, Epidermal growth factor receptor; assay: as §1; remark: listed apart in the source
[3] = target: T1, Epidermal growth factor receptor; assay: as §1; remark: listed apart in the source
[4] = target: Platelet-derived growth factor receptor (Homo sapiens, UniProt P09619+P16234); assay: Inhibition of human PDGFR kinase in intact NIHPDGFR cells; type: cell-based
[5] = target: T1, Epidermal growth factor receptor; conditions: a-431
Description: Inhibition of EGF Receptor autophosphorylation in A431 cell lysate; Range = 10000-50000 nM

[6] = target: T2, Receptor tyrosine-protein kinase erbB-2 (Homo sapiens, UniProt P04626); assay: Inhibition of HER2 kinase in intact CSH12 cells; type: cell-based
T2 sequence (P04626 whole entry): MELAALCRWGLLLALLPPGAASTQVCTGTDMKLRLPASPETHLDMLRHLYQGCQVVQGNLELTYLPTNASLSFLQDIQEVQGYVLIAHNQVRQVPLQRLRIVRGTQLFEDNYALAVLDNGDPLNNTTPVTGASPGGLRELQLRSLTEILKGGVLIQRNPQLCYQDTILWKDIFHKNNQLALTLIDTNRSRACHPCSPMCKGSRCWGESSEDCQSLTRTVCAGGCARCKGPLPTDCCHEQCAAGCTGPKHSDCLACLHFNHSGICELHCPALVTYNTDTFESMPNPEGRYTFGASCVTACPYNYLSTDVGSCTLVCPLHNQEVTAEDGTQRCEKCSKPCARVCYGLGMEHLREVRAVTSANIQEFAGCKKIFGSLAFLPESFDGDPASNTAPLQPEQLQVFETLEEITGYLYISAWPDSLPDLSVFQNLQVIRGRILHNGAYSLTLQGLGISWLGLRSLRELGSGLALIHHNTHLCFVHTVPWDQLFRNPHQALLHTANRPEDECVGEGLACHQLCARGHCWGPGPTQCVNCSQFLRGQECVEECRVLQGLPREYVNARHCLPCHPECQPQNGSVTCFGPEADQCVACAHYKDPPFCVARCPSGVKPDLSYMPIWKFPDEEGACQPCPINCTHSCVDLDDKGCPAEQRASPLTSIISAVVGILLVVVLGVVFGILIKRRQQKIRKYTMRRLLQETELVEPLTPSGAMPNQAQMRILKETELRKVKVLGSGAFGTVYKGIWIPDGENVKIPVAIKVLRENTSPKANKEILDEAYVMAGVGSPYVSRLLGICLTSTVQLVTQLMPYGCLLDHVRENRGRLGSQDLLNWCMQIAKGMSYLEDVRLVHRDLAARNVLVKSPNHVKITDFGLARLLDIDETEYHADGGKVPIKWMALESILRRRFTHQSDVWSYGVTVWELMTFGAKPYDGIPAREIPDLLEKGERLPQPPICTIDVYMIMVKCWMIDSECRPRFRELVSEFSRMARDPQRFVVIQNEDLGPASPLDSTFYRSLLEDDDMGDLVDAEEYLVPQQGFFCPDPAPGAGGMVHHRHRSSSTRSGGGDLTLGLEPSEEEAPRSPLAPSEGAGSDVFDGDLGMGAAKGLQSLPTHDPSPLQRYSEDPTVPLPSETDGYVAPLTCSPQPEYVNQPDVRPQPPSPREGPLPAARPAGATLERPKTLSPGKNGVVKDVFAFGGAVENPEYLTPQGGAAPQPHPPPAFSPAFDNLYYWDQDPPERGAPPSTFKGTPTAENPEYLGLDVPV

[7] = target: T2, Receptor tyrosine-protein kinase erbB-2; assay: Inhibition of HER2 kinase in intact CSH12 cells; Range = 25-50 nM; type: cell-based

T1 sequence (P00533 whole entry): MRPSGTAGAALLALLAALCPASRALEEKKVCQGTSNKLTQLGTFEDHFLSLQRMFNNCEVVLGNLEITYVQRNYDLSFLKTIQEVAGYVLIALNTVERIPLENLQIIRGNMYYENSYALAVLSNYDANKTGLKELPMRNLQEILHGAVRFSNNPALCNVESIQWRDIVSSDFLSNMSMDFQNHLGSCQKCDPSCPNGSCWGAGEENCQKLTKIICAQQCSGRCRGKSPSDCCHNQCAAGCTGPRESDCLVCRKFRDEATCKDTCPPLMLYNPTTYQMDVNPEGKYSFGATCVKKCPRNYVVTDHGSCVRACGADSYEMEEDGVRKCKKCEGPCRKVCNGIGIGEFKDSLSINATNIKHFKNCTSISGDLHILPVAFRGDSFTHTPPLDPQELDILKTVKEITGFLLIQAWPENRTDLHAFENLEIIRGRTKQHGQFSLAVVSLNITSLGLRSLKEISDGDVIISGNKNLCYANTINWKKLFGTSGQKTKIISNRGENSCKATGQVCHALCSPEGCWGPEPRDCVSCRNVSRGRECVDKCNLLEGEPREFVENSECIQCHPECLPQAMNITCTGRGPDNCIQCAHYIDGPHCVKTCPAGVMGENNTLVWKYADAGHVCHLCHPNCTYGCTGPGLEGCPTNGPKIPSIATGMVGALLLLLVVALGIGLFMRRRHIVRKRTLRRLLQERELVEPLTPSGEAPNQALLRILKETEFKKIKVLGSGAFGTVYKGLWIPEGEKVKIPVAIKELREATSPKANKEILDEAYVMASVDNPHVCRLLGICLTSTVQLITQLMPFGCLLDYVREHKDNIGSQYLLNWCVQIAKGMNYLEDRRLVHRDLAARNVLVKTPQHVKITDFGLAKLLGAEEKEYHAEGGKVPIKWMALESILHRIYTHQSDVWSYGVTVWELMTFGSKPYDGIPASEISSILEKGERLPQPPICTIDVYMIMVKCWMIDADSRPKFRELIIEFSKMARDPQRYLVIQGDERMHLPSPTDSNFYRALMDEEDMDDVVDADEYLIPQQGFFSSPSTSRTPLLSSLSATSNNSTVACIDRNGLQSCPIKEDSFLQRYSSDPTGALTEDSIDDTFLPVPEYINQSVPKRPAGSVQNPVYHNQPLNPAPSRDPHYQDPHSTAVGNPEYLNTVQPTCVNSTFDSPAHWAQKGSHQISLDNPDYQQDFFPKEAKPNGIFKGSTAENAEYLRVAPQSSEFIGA

| IC50 [1] | IC50 [3] | IC50 [4] | Compound | other results |
| --- | --- | --- | --- | --- |
| 0.94 nM | < 5 nM | – | CN(C)C/C=C/C(=O)Nc1ccc2ncnc(Nc3cccc(I)c3)c2c1 | IC50 [2]: < 5 nM |
| – | – | > 1000 nM | CN(C)C/C=C/C(=O)Nc1ccc2ncnc(Nc3cc(Cl)c(Cl)cc3F)c2c1 | – |
| 150 nM | 50000 nM | – | COCC(=O)Nc1ccc2ncnc(Nc3cccc(I)c3)c2c1 | – |
| 252 nM | – | > 1000 nM | COCC(=O)Nc1ccc2ncnc(Nc3cc(Cl)c(Cl)cc3F)c2c1 | IC50 [5]: 50000 nM; IC50 [6]: > 500 nM |
| 0.07 nM | – | > 1000 nM | O=C(CCl)Nc1ccc2ncnc(Nc3cc(Cl)c(Cl)cc3F)c2c1 | IC50 [7]: 50 nM |
| – | > 500 nM | – | C=CC(=O)Nc1cc2c(Nc3cccc(Br)c3)ncnc2cc1N1CCN(C)CC1 | – |
| 6000 nM | > 500 nM | – | C=CC(=O)Nc1cc2c(Nc3cc(Cl)c(Cl)cc3F)ncnc2cc1N1CCN(C)CC1 | IC50 [2]: 250 nM |
| 0.208 nM | – | – | COc1cc2ncnc(Nc3cc(Cl)c(Cl)cc3F)c2cc1OC | – |
